Patent US8080659B2, “CXCR4 antagonists including diazine and triazine structures for the treatment of medical disorders” (Emory University, priority 2006, dated 2011)

What was measured:
[1] = tested on: CXCR4; assay: CXCR4 protein levels after treatment of cells; assay type: cell-based, human
[2] = tested on: human umbilical vein endothelial cells (HUVECs); assay: endothelial capillary tube formation assay; assay type: cell-based; conditions: 100 nM; SDF-1 100 ng/ml; 18 hours
Experimental: The anti-angiogenic effect of test compounds was measured by analyzing endothelial cell growth and tube formation. The angiogenic effect of SDF-1 (100 ng/ml) on capillary formation by human umbilical vein endothelial cells (HUVECs) was examined in vitro using Matrigel-coated 24-well plates precoated with Matrigel and incubated for 18 hours. The angiogenic effect of SDF-1 was inhibited by either 100 nM TN14003 (peptide-based CXCR4 antagonist) or WZZL811S treatment (FIG. 14a, graph FIG. 14b).

[3] = tested on: MT-4 cells; conditions: cited from earlier work
[4] = molecular target: T1, CXCR4 (Homo sapiens, UniProt P61073); assay: SDF-1-stimulated Akt phosphorylation in MDA-MB-231 cells (western blot); assay type: cell-based; parameters: endogenous in cells; host or cells: MDA-MB-231; conditions: for concentration blocking Akt activation: 100 ng/ml SDF-1, 30 minutes; for block of SDF-1-stimulated phosphorylation of Akt: MDA-MB-231 cells, 100 ng/ml SDF-1, 30 min, dose-dependent
T1 sequence (P61073 whole entry): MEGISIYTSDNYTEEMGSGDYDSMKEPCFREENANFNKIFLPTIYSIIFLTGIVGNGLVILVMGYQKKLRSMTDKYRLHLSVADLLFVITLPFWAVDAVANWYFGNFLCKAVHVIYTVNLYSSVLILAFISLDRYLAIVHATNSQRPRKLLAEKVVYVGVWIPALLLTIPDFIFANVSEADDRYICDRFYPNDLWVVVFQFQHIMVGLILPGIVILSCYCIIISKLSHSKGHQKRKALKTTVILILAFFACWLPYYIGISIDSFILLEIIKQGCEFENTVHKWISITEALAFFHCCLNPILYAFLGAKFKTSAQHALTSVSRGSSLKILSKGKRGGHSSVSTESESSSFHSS
Experimental: FIG. 2 is an image of a western blot showing phosphorylation of Akt. Incubating MDA-MB-231 cells with 100 ng/ml of SDF-1 for 30 min stimulated phosphorylation of Akt. This activation was blocked with TN14003 or AMD3100 in a dose-dependent manner.
CXCR4/SDF-1 interaction activates PI3K/Akt and Ras/Raf/MEK/Erk pathways in a Gαi protein (PTX-sensitive)-dependent manner. Experiments were conducted to determine the effect of blocking CXCR4/SDF-1 interaction by either TN14003 or AMD3100 at different concentrations (0, 0.01, 0.1, 1, 10, 100, 1000 nM) on phosphorylations of Akt and Erk1/2 signaling. Incubating cells with 100 ng/ml of SDF-1 for 30 minutes activated Akt. […] However, the increase in Erk1/2 phosphorylation by SDF-1 was not significant as the increase in Akt phosphorylation.
(§1) WZZL811S was tested in a matrigel invasion assay to determine whether it can inhibit CXCR4/SDF-1-mediated invasion.

[5] = tested on: HIV; conditions: MT-4 cells; read-out: concentration required for 50% protection of HIV-induced cytopathogenicity; cited from earlier work
[6] = tested on: 686LN cells; assay: Head & Neck cancer metastasis model, 686LN cells i.v., FDG-PET; assay type: in vivo, mice; conditions: 20 mg/mouse/twice weekly, thirty days
Experimental: The metastatic 686LN cells were injected intravenously through the tail vein to generate experimental animal models for Head & Neck cancer metastasis, modulated via CXCR4. […] These 3-D projection images show lung metastases well (bone mets and liver mets were apparent in axial section images of mice in control groups, data not shown).

[7] = molecular target: T1, CXCR4; assay: SDF-1-stimulated Erk1/2 phosphorylation; assay type: cell-based; parameters: endogenous in cells; host or cells: MDA-MB-231; conditions: data not shown
Experimental: CXCR4/SDF-1 interaction activates PI3K/Akt and Ras/Raf/MEK/Erk pathways in a Gαi protein (PTX-sensitive)-dependent manner. Experiments were conducted to determine the effect of blocking CXCR4/SDF-1 interaction by either TN14003 or AMD3100 at different concentrations (0, 0.01, 0.1, 1, 10, 100, 1000 nM) on phosphorylations of Akt and Erk1/2 signaling.

[8] = tested on: MDA-MB-231 cells; assay: matrigel invasion assay, CXCR4/SDF-1-mediated invasion; assay type: cell-based, human; conditions: 2 nM
Experimental: Lowering CXCR4 mRNA levels by siRNAs inhibited CXCR4/SDF-1-mediated invasion as measured by a matrigel invasion assay. The CXCR4 ligand, SDF-1 (400 ng/ml) was added to the lower chamber to attract CXCR4-positive breast cancer cells to migrate through the matrigel. The invasion of MDA-MB-231 cells transfected with siRNA1 decreased to 39±4% of the control cells, 51±8% with siRNA2, and only 16±6% with both siRNA1+2 (FIG. 3A).
as §1

[9] = molecular target: T1, CXCR4; assay: competition assay using biotin-labeled TN14003 on tumor cells; assay type: binding; parameters: endogenous in cells; probably MDA-MB-231
Excerpt: In a separate embodiment, a process for screening potential drug candidates is provided. The process includes providing a labeled peptide-based CXCR4 antagonist that has a detectable signal when bound to a CXCR4 receptor; contacting a CXCR4 receptor with at least one test molecule at a known concentration to form a test sample; contacting the test sample with the peptide-based antagonist; separately, contacting the peptide-based antagonist to a sample not including any test molecule to form a control sample; and comparing the signal from the test sample to the signal from the control sample. In a specific sub-embodiment, the peptide-based antagonist is derived from TN14003 (described in PCT Publication No. WO 04/087068 to Emory University). In a further subembodiment, the antagonist is labeled with a biotin molecule and the signal is elicited when the biotin-labeled antagonist is contacted with a streptavadin-conjugated signal molecule.
The signal elicited by binding of the CXCR4 antagonist and the receptor can be a fluorescent signal. […]
The peptide-based antagonist is typically a molecule with high affinity for the receptor. […] In this embodiment, the test compound is incubated with the receptor at varying concentrations and the signal elicited after binding of the labeled antagonist is measured and compared to control, as well as to each other. […]

[10] = clinical trials; cited from earlier work
[11] = tested on: hypoxia-responsive element (HRE) of VEGF promoter; assay: HRE-luciferase reporter of VEGF promoter activity in HRE-Luc MB-231 cells; assay type: cell-based, human
Excerpt: To determine whether lowering CXCR4 levels might affect VEGF transcription compared to HIF-1α the hypoxia-reporting luciferase/LacZ plasmid from Dr. Van Meir's laboratory was used as a reporter system to detect hypoxia-responsive element (HRE) of VEGF promoter activity (Post, D. E. and Van Meir, E. G. (2001) Gene Ther 8: 1801-1807). The sequence of HIF-1α siRNA was 5′-UUCAAGUUGGAAUUGGUAGdTdT-3′ (SEQ. ID No. 3). Pooled cell clones were created with MDA-MB-231 cells stably transfected with this plasmid (called HRE-Luc MB-231). Unexpectedly, HRE activity in normoxia was moderately high in MDA-MB-231 cells that have high CXCR4 levels in normoxia (FIG. 6, left), which was not observed in other cell lines with low CXCR4 and HIF-1 levels (LN229, U87, 9L, and MDA-MB-435). This moderately high HRE activity in MDA-MB-231 cells was suppressed by CXCR4 siRNA or HIF-1α siRNA. […] As expected, the HRE activity increased 2.5-fold by hypoxia treatment (1% oxygen and 5% CO2 in nitrogen). This elevated HRE activity was again suppressed by siRNA for CXCR4 or HIF-1α (FIG. 6, right).

## TN14003
[1]
  effect on CXCR4 protein levels: did not affect
[2]
  angiogenic effect of SDF-1 on capillary tube formation: inhibited
[3]
  concentration leading to 50% toxicity: 410 µM
[4]
  concentration blocking Akt activation: sub-nano molar
  block of SDF-1-stimulated phosphorylation of Akt: blocked
[5]
  EC50: 0.6 nM
[6]
  metastasis to organs: failed to metastasize to any organs
[7]
  concentration attenuating Erk1/2 phosphorylation: sub-nano molar
[8]
  block of CXCR4/SDF-1 mediated invasion: blocked

## C1=CC(CN2CCCNCCNCCCNCC2)CC=C1CN1CCCNCCNCCCNCC1 (centres unmarked) [AMD3100]
[1]
  effect on CXCR4 protein levels: did not affect
[4]
  concentration blocking Akt activation: a few nano molar
  block of SDF-1-stimulated phosphorylation of Akt: blocked
[9]
  concentration needed to compete against biotin-labeled TN14003: 10 µM
[7]
  concentration attenuating Erk1/2 phosphorylation: 100 nM
[10]
  side effect in clinical study: cardiac-related side effect

## HIF-1α siRNA: HIF-1α siRNA, 5′-UUCAAGUUGGAAUUGGUAGdTdT-3′ (SEQ. ID No. 3) (guide UUCAAGUUGGAAUUGGUAGNN; further chemistry not given here)
[11]; hypoxia (1% oxygen)
  HRE activity: suppressed
[11]; normoxia
  HRE activity: suppressed
